Literature values, collected in patent publication EP2792015B1, “HIGH SPECIFIC-ENERGY LI/02-CO2 BATTERY” (Robert Bosch GmbH, priority 2011, dated 2013).
Values after ≈ are worked out from the molar mass of the structure shown. Like-named read-outs stand apart in the source and are kept apart here.

Conditions: 1 atmosphere and 25°C

Row | SMILES | Solubility (in H2O) [µg/mL] | Solubility (in propylene carbonate) [µg/mL]
1 | O=C=O [CO2, carbon dioxide] | 1450 (≈ 32.9 mM) | 6115 (≈ 139 mM)
2 | O=O [O2, oxygen] | 8.3 (≈ 0.259 mM) | 110 (≈ 3.44 mM)
